In patent US6194173A, “Binding proteins for phosphoinositides, GRP1 or general receptor 1 for phophoinositide” (priority 1999, dated 2001):
“Also recorded” adds a separate entry of the source.

Experiments:
[1] = target: T1, proteins encoded by both brain and adipocyte cDNA clones (GRP) (Mus musculus, UniProt O08967); test: Binding of 32P-labeled phosphoinositides to protein of isolated cDNA clones on nitrocellulose filters (library screen); details: library screening conditions
T1 construct: lack four residues
T1 sequence (O08967 5-399): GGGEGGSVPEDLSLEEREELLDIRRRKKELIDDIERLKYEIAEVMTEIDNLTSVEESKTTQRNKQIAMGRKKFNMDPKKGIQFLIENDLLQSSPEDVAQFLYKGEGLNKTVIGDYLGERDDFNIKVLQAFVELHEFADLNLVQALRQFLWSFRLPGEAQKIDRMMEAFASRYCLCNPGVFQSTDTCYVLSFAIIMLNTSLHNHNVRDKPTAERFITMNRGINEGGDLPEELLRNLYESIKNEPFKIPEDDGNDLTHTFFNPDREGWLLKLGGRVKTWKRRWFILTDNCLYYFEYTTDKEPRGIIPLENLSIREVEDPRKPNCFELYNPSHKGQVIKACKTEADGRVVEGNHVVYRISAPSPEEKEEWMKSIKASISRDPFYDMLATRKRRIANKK

PH domain of GRP = target: T2, PH domain of GRP (Mus musculus, UniProt O08967); test: Binding specificity of the GRP PH domain for 32P-labeled phosphoinositides (GST-PH on nitrocellulose); set-up: species or system murine; details: GST-PH, 25,000 cpm lipid; relative to GST
T2 sequence (O08967 239-399): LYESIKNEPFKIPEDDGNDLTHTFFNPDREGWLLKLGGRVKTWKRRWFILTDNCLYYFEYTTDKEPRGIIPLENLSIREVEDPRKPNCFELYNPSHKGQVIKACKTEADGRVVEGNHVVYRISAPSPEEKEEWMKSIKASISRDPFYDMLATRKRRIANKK
Method: The 3'-phosphatidylinositol probes labeled at the 3' position were generated using GST-p110 PI3-kinase purified from recombinant bacculovirus infected Sf 9 cells, using either purified phosphatidylinositol phosphates or crude brain lipid. Briefly, 20 mg phospholipid in chloroform was dried under N2 and resuspended in […] of buffer containing Tris-HCl pH 7.4, EDTA 1 mM and incubated in […] phopsphorylation media containing 20 mM Tris-HCl pH 7.4, 100 mM NaCl, 10 mM MgCl2, 0.5 mM EGTA. 0.2 mM adenosine, GST-p110 and 5-10 mCi [g-^32 P]ATP (5 Ci/umol). The reaction was carried out for 2 h at room temperature, quenched by addition of 0.2 ml of 1M HCl, followed by 0.5 ml of chloroform:methanol (1:1). The organic phase containing phospholipids was washed 4 times with 0.4 ml of methanol:HCl (1: 1) and stored at -70° C. until use. Just before use, the lipid was dried under a stream of nitrogen with phosphatidyl serine corresponding to a final concentration of 20 mg/ml. The identities of the PI3-P, PI3,4-P2 and PI3,4,5-P3 were confirmed by TLC and HPLC analysis.
To generate the GST fusion proteins, PCR reactions using the primers: […] (SEQ ID NO:9) and […] (SEQ ID NO:10) for the GST-N construct, […] (SEQ ID NO:11) and […] (SEQ ID NO:12) for the GST-Sec7 construct, […] (SEQ ID NO:13) and […] (SEQ ID NO:14) for the GSTPH construct, and […] […] The filters were washed four times with 1 mL assay buffer and counted in a scintillation counter.
In order to determine whether PI(3,4,5)P3 binding could be localized to specific sequences within the GRP structure, GST fusion proteins containing either residues 239 to 399 (PH domain), residues 52 to 260 (Sec7 domain), or residues 5 to 71, full length GRP residues 5-399 were expressed in bacteria and purified on glutathione-conjugated beads. […] 150 pmol of the proteins were spotted on nitrocellulose filters, incubated with [^32 P]PI(3,4,5)P3 and the amount of bound lipid was determined as described. […] Nitrocellulose filters with GST-PH were incubated with 25,000 cpm of each of the phospholipids and the amount of bound lipid determined as described above. […]

GRP Sec7 homology domain = test: Effect of phosphoinositides on ARF1 exchange catalyzed by the GRP Sec7 domain; format: biochemical, mouse; details: 25 μM PtdIns(3,4,5)P3
GRP = target: T3, GRP (Mus musculus, UniProt O08967); test: Effect of phosphoinositides on GRP-catalyzed ARF1 guanine nucleotide exchange; format: biochemical; details: for stimulation of ARF1 exchange activity in the presence of GRP: 25 μM lipid, 0.15 μM GRP
T3 construct: GST (N, cleaved yes); made in house; host or cells: GRP from pGEX-4T; ARF1 from baculovirus-infected Sf-9 cells
T3 sequence (O08967 1-399): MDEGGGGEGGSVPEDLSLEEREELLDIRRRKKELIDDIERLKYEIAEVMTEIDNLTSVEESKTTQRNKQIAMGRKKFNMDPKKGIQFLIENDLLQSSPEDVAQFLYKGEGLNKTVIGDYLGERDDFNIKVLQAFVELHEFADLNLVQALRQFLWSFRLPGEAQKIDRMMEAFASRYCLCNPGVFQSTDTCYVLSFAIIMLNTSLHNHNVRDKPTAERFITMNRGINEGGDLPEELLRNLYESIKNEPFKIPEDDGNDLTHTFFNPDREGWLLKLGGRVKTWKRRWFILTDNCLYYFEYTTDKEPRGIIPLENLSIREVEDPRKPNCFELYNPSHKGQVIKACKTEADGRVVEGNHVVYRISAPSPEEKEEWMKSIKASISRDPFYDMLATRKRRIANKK

Phosphatidylinositol (3,4,5)-Trisphosphate [PtdIns(3,4,5)P3]
binding of labeled phosphoinositide to the cDNA clone protein [1]: bound | binding of labeled phosphoinositide to the GRP PH domain (PH domain of GRP): specifically | effect on ARF exchange activity catalyzed by the GRP Sec7 homology domain (GRP Sec7 homology domain): no effect | maximal activation of GRP-catalyzed ARF1 exchange (GRP; 0.1 μM GRP1, 40 minutes): 3-4 fold | EC50 (GRP; 0.1 μM GRP1, 40 minutes, read-out: half maximal stimulation of GRP-catalyzed ARF1 [^35 S]GTPγS binding): ~1000 nM | stimulation of ARF1 exchange activity in the presence of GRP (GRP; 0.05% cholate and 0.05% CHAPS (low negative charge)): selectively stimulated; also recorded: Selectivity | stimulation of ARF1 exchange activity in the presence of GRP (GRP; 0.1% cholate (high negative charge)): stimulated
